{"source": "patent US8461085B2", "about": "“Bioherbicide from Festuca spp” (Cornell Research Foundation, Inc., priority 2005, dated 2013)", "experiment_in_all_cases": "Weed and crop Petri dish bioassay, radicle length", "key": {"Tomato": {"test_system": "Tomato", "type": "in vivo, Lycopersicon esculentum var. esculentum P. Mill.", "procedure": "(§1) m-Tyrosine activity was bioassayed using selected weed and crop species. Growth inhibition as measured by radicle elongation was evaluated in dandelion (Taraxacum officinale Weber in […].), large crabgrass (Digitaria sanguinalis (L.) Scop.), velvetleaf (Abutilon theophrasti Medicus), black medic (Medicago lupulina L.), curly cress (Lepidium sativum L.), bamyardgrass (Echinochloa crus-galli.(L.) Beauv.), lettuce (Lactuca sativa L.), purslane (Portulaca oleracea L.), annual bluegrass (Poa annua L.), birdsfoot trefoil (Lotus corniculatus L.), broadleaf plantain (Plantago major L.), mouseear chickweed (Cerastium vulgatum L.), common chickweed (Stellaria media (L.) Vill.), white clover (Trifolium repens L.), wheat (Triticum aestivum L.), tomato (Lycopersicon esculentum var. esculentum P. Mill.), tobacco (Nicotiana tobacum L.), and sorghum sudangrass hybrid (Sorghum bicolor x Sudanese). Weeds were purchased from HerbiSeeds, England, tomato seeds were purchased from Agway (Ithaca N.Y.), and wheat, sudex and tobacco where donated by Pioneer Seeds (Johnson, Iowa). Seeds were sterilized by a water: ethanol mixture (1:1) for one minute and rinsed three times thoroughly in distilled water. The simple phytotoxicity bioassay utilized consisted of the evaluation of radicle length of ten sterilized seeds of each weed/crop deposited on a filter paper containing the appropriate m-tyrosine test solution in 4.5 cm Petri dishes. […] A 1000 μL aliquot of the appropriate test solution was added to individual Petri dishes lined with Whatman No. 1 filter paper. Control dishes received 1000 μL of water. After seeds were placed on moistened filter paper, Petri dishes were transferred to a controlled environment with a light regime of 45,33 photon m^-2 s^-1 and maintained at an average temperature of 25° C. for 7 days. At the end of the incubation period, radicle length was measured. Treatments were replicated three times, and the experiment for each plant species tested was repeated three times."}, "Tobacco": {"test_system": "Tobacco", "type": "in vivo, Nicotiana tobacum L.", "procedure": "as §1"}, "Common Chickweed": {"test_system": "Common Chickweed", "type": "in vivo, Stellaria media (L.) Vill.", "procedure": "m-Tyrosine activity was bioassayed using selected weed and crop species. Growth inhibition as measured by radicle elongation was evaluated in dandelion (Taraxacum officinale Weber in […].), large crabgrass (Digitaria sanguinalis (L.) Scop.), velvetleaf (Abutilon theophrasti Medicus), black medic (Medicago lupulina L.), curly cress (Lepidium sativum L.), bamyardgrass (Echinochloa crus-galli.(L.) Beauv.), lettuce (Lactuca sativa L.), purslane (Portulaca oleracea L.), annual bluegrass (Poa annua L.), birdsfoot trefoil (Lotus corniculatus L.), broadleaf plantain (Plantago major L.), mouseear chickweed (Cerastium vulgatum L.), common chickweed (Stellaria media (L.) Vill.), white clover (Trifolium repens L.), wheat (Triticum aestivum L.), tomato (Lycopersicon esculentum var. esculentum P. Mill.), tobacco (Nicotiana tobacum L.), and sorghum sudangrass hybrid (Sorghum bicolor x Sudanese). Weeds were purchased from HerbiSeeds, England, tomato seeds were purchased from Agway (Ithaca N.Y.), and wheat, sudex and tobacco where donated by Pioneer Seeds (Johnson, Iowa). Seeds were sterilized by a water: ethanol mixture (1:1) for one minute and rinsed three times thoroughly in distilled water. […] At the end of the incubation period, radicle length was measured. […]"}}}
{"compound": "N[C@@H](Cc1cccc(O)c1)C(=O)O", "note": "[m-tyrosine, 3-hydroxyphenylalanine]", "values": [{"measurement": "I10", "setting": "Tomato", "result": 35, "unit": "µM"}, {"measurement": "I100", "setting": "Tomato", "result": 160, "unit": "µM"}, {"measurement": "IC50", "setting": "Tomato; Solanum lycopersicum, read-out: I50", "result": 75, "unit": "µM"}, {"measurement": "I10", "setting": "Tobacco", "result": 30, "unit": "µM"}, {"measurement": "I100", "setting": "Tobacco", "result": 160, "unit": "µM"}, {"measurement": "IC50", "setting": "Tobacco; Nicotiana tabacum, read-out: I50", "result": 40, "unit": "µM"}, {"measurement": "I10", "setting": "Common Chickweed", "result": 80, "unit": "µM"}, {"measurement": "I100", "setting": "Common Chickweed", "result": 320, "unit": "µM"}]}
